We go through 42 substances from patent US8969516B2, “Method of hydrolysis of peptide bond” (priority 2006, dated 2015).

The series is described as follows: MALDI-TOF screening of Ni^2+ dependent hydrolysis in a combinatorial peptide library. It counts as physicochemical. To be noted: CH3CO-Gly-Ala-Thr-X-His-Z-Lys-Phe-Leu-NH2 library, Ni^2+ 2 mM, pH 8.2, 10 mM Tris, score=24/tm. The gist of the method: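 Sublibraries of Ac-Gly-Ala-Ser/Thr-X-His-Z-Lys-Phe-Leu-NH2, randomized at Z and fixed at X, were hydrolyzed at 1 mM total peptide with 2 mM Ni2+ in 10 mM Tris, pH 8.2, at 37 °C or 45 °C. Cleavage was scored visually in MALDI-TOF spectra at 2, 4, 6 and 8 h.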

Take Ac-GATNHYKFL-NH2 [TNHY]: the “hydrolysis score from MALDI-TOF screening” value (“hydrolysis score” below) by setting is: (37° C.) 0 (a score of 0 if no trace of the product of hydrolysis was seen after 8 hours of incubation); (45° C.) 0 (a score of 0 if no trace of the product of hydrolysis was seen after 8 hours of incubation).
In the case of Ac-GATPHAKFL-NH2 [TPHA], under “45° C.”, the “hydrolysis score” value is recorded as 0 (a score of 0 if no trace of the product of hydrolysis was seen after 8 hours of incubation).
Still for that read-out and setting: as for Ac-GATPHDKFL-NH2 [TPHD], the figure is 0 (a score of 0 if no trace of the product of hydrolysis was seen after 8 hours of incubation); as for Ac-GATPHEKFL-NH2 [TPHE], 0 (a score of 0 if no trace of the product of hydrolysis was seen after 8 hours of incubation); as for Ac-GATPHFKFL-NH2 [TPHF], 0 (a score of 0 if no trace of the product of hydrolysis was seen after 8 hours of incubation).
In the case of Ac-GATPHGKFL-NH2 [TPHG], the “hydrolysis score” value (45° C.) is given as 0 (a score of 0 if no trace of the product of hydrolysis was seen after 8 hours of incubation).
On the same count and under the same terms, the result for Ac-GATPHHKFL-NH2 [TPHH] reads 0 (a score of 0 if no trace of the product of hydrolysis was seen after 8 hours of incubation); that for Ac-GATPHIKFL-NH2 [TPHI], 0 (a score of 0 if no trace of the product of hydrolysis was seen after 8 hours of incubation); that for Ac-GATPHKKFL-NH2 [TPHK], 0 (a score of 0 if no trace of the product of hydrolysis was seen after 8 hours of incubation).
The same measure, in the same setting: as for Ac-GATPHLKFL-NH2 [TPHL], the figure is 0 (a score of 0 if no trace of the product of hydrolysis was seen after 8 hours of incubation); as for Ac-GATPHNKFL-NH2 [TPHN], 0 (a score of 0 if no trace of the product of hydrolysis was seen after 8 hours of incubation).
The same measure, in the same setting: the result for Ac-GATPHPKFL-NH2 [TPHP] reads 0 (a score of 0 if no trace of the product of hydrolysis was seen after 8 hours of incubation); that for Ac-GATPHQKFL-NH2 [TPHQ], 0 (a score of 0 if no trace of the product of hydrolysis was seen after 8 hours of incubation).
As to Ac-GATPHRKFL-NH2 [TPHR], the “hydrolysis score” value (45° C.) was 0 (a score of 0 if no trace of the product of hydrolysis was seen after 8 hours of incubation).
In the case of Ac-GATPHSKFL-NH2 [TPHS], the “hydrolysis score” value (45° C.) was 0 (a score of 0 if no trace of the product of hydrolysis was seen after 8 hours of incubation).
Same read-out and setting: the result for Ac-GATPHTKFL-NH2 [TPHT] reads 0 (a score of 0 if no trace of the product of hydrolysis was seen after 8 hours of incubation); that for Ac-GATPHVKFL-NH2 [TPHV], 0 (a score of 0 if no trace of the product of hydrolysis was seen after 8 hours of incubation); that for Ac-GATPHWKFL-NH2 [TPHW], 0 (a score of 0 if no trace of the product of hydrolysis was seen after 8 hours of incubation).
With Ac-GATPHYKFL-NH2 [TPHY], where the note is “45° C.”, the “hydrolysis score” value is 0 (a score of 0 if no trace of the product of hydrolysis was seen after 8 hours of incubation).
Consider Ac-GATQHAKFL-NH2 [TQHA], for which the “hydrolysis score” value is, setting by setting: (37° C.) 0 (a score of 0 if no trace of the product of hydrolysis was seen after 8 hours of incubation); (45° C.) 0 (a score of 0 if no trace of the product of hydrolysis was seen after 8 hours of incubation).
As for Ac-GATQHDKFL-NH2 [TQHD], the “hydrolysis score” value is, setting by setting: (37° C.) 0 (a score of 0 if no trace of the product of hydrolysis was seen after 8 hours of incubation); (45° C.) 0 (a score of 0 if no trace of the product of hydrolysis was seen after 8 hours of incubation).
As for Ac-GATQHEKFL-NH2 [TQHE], the “hydrolysis score” value (37° C.) is 0 (a score of 0 if no trace of the product of hydrolysis was seen after 8 hours of incubation) and the “hydrolysis score” value (45° C.) was 0 (a score of 0 if no trace of the product of hydrolysis was seen after 8 hours of incubation).
Regarding Ac-GATQHFKFL-NH2 [TQHF], the “hydrolysis score” value is, setting by setting: (37° C.) 0 (a score of 0 if no trace of the product of hydrolysis was seen after 8 hours of incubation); (45° C.) 0 (a score of 0 if no trace of the product of hydrolysis was seen after 8 hours of incubation).
Ac-GATQHGKFL-NH2 [TQHG]: the “hydrolysis score” value (37° C.) is 0 (a score of 0 if no trace of the product of hydrolysis was seen after 8 hours of incubation) and the “hydrolysis score” value (45° C.) is 0 (a score of 0 if no trace of the product of hydrolysis was seen after 8 hours of incubation).
In the case of Ac-GATQHHKFL-NH2 [TQHH], the “hydrolysis score” value by setting is: (37° C.) 0 (a score of 0 if no trace of the product of hydrolysis was seen after 8 hours of incubation); (45° C.) 0 (a score of 0 if no trace of the product of hydrolysis was seen after 8 hours of incubation).
On to Ac-GATQHIKFL-NH2 [TQHI], for which the “hydrolysis score” value (37° C.) is on record as 0 (a score of 0 if no trace of the product of hydrolysis was seen after 8 hours of incubation) and the “hydrolysis score” value (45° C.) is 3 (a score of 3 for detection at 8 hours).
Ac-GATQHKKFL-NH2 [TQHK]: the “hydrolysis score” value is, setting by setting: (37° C.) 0 (a score of 0 if no trace of the product of hydrolysis was seen after 8 hours of incubation); (45° C.) 3 (a score of 3 for detection at 8 hours).
On the same counts, the results for Ac-GATQHLKFL-NH2 [TQHL] are 0 (a score of 0 if no trace of the product of hydrolysis was seen after 8 hours of incubation) and 3 (a score of 3 for detection at 8 hours).
On the same counts, the results for Ac-GATQHMKFL-NH2 [TQHM] are 0 (a score of 0 if no trace of the product of hydrolysis was seen after 8 hours of incubation) and 0 (a score of 0 if no trace of the product of hydrolysis was seen after 8 hours of incubation).
On the same counts, the results for Ac-GATQHNKFL-NH2 [TQHN] are 0 (a score of 0 if no trace of the product of hydrolysis was seen after 8 hours of incubation) and 0 (a score of 0 if no trace of the product of hydrolysis was seen after 8 hours of incubation).
Ac-GATQHPKFL-NH2 [TQHP]: the “hydrolysis score” value reads like this: (37° C.) 0 (a score of 0 if no trace of the product of hydrolysis was seen after 8 hours of incubation); (45° C.) 0 (a score of 0 if no trace of the product of hydrolysis was seen after 8 hours of incubation).
Regarding Ac-GATQHQKFL-NH2 [TQHQ], the “hydrolysis score” value (37° C.) is recorded as 0 (a score of 0 if no trace of the product of hydrolysis was seen after 8 hours of incubation) and the “hydrolysis score” value (45° C.) is 0 (a score of 0 if no trace of the product of hydrolysis was seen after 8 hours of incubation).
Ac-GATQHRKFL-NH2 [TQHR]: the “hydrolysis score” value is 3 (a score of 3 for detection at 8 hours) (37° C.) and 4 (a score of 4 for detection at 6 hours) (45° C.).
With Ac-GATQHSKFL-NH2 [TQHS], the “hydrolysis score” value runs as follows: (37° C.) 0 (a score of 0 if no trace of the product of hydrolysis was seen after 8 hours of incubation); (45° C.) 0 (a score of 0 if no trace of the product of hydrolysis was seen after 8 hours of incubation).
As to Ac-GATQHTKFL-NH2 [TQHT], the “hydrolysis score” value (37° C.) is given as 0 (a score of 0 if no trace of the product of hydrolysis was seen after 8 hours of incubation) and the “hydrolysis score” value (45° C.) is reported as 0 (a score of 0 if no trace of the product of hydrolysis was seen after 8 hours of incubation).
With Ac-GATQHVKFL-NH2 [TQHV], the “hydrolysis score” value reads like this: (37° C.) 0 (a score of 0 if no trace of the product of hydrolysis was seen after 8 hours of incubation); (45° C.) 0 (a score of 0 if no trace of the product of hydrolysis was seen after 8 hours of incubation).
Take Ac-GATQHWKFL-NH2 [TQHW]: the “hydrolysis score” value reads like this: (37° C.) 3 (a score of 3 for detection at 8 hours); (45° C.) 4 (a score of 4 for detection at 6 hours).
On the same counts, the results for Ac-GATQHYKFL-NH2 [TQHY] are 0 (a score of 0 if no trace of the product of hydrolysis was seen after 8 hours of incubation) and 0 (a score of 0 if no trace of the product of hydrolysis was seen after 8 hours of incubation).
Ac-GATRHAKFL-NH2 [TRHA]: the “hydrolysis score” value runs as follows: (37° C.) 0 (a score of 0 if no trace of the product of hydrolysis was seen after 8 hours of incubation); (45° C.) 3 (a score of 3 for detection at 8 hours).
On the same counts, the results for Ac-GATRHDKFL-NH2 [TRHD] are 0 (a score of 0 if no trace of the product of hydrolysis was seen after 8 hours of incubation) and 0 (a score of 0 if no trace of the product of hydrolysis was seen after 8 hours of incubation).
In the same order, the values of Ac-GATRHEKFL-NH2 [TRHE] are 0 (a score of 0 if no trace of the product of hydrolysis was seen after 8 hours of incubation) and 0 (a score of 0 if no trace of the product of hydrolysis was seen after 8 hours of incubation).
Ac-GATRHFKFL-NH2 [TRHF]: the “hydrolysis score” value (37° C.) is reported as 3 (a score of 3 for detection at 8 hours) and the “hydrolysis score” value (45° C.) was 4 (a score of 4 for detection at 6 hours).
